The results in this text go back to PubChem BioAssay (NCI).

SMILES strings stand for the structures. “And” between values parts separate entries of the source, which are not always exact repeats. Identical values can stand only once.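 Cultured in 96-well plates, cells were exposed to test compound for 48 hours across five concentrations. Here, GI50 denotes the concentration required for 50% inhibition of growth. TGI marks complete inhibition of growth.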 A value given as a limit tells only on which side of the number the result lay.

Test in all cases: NCI tumour cell line growth inhibition, 48 h
Experiment [1] concerns DLD-1 colon.
Experiment [2] concerns DMS 114 small cell lung.
Experiment [3] relates to DMS 273 small cell lung.
Experiment [4] relates to HCC-2998 colon.
Experiment [5] has as its system HCT-15 colon.
Experiment [6] deals with HL-60(TB) leukemia.
Experiment [7] has as its system HOP-18 NSCLC.
The subject of experiment [8] is KM20L2 colon.
Experiment [9] concerns M19-MEL melanoma.
Experiment [10] relates to NCI-H226 lung.
In experiment [11] the test system is RXF 393 renal.
The test system of experiment [12] is SNB-78 CNS.
Experiment [13] has as its system U251 CNS.
The test system of experiment [14] is XF 498 CNS.
In experiment [15] the test system is LXFL 529 NSCLC.

For the compound `O=C(O)/C=C/c1c[nH]c(=O)[nH]c1=O`, the TGI in experiment [1], in experiment [2], in experiment [3], in experiment [4], in [5] and in experiment [6] was above 500 µM throughout. Also, the TGI in experiment [7], in experiment [8], in experiment [9], in experiment [10], in experiment [11] and in [12] was above 500 µM in each case. Also, the TGI in [13] and in experiment [14] was above 500 µM throughout. The GI50 in [11] was above 500 µM; in experiment [14] it was > 500 µM and 151 µM.
For `Clc1ccc(C[P+](c2ccccc2)(c2ccccc2)c2ccccc2)cc1Cl`, the TGI in experiment [1] was 21.5 µM; in experiment [2], 5.95 µM; in [3], 7.58 µM; in experiment [4] it was 11.2 µM; in experiment [5], 44.5 µM; in experiment [6] it was 14.9 µM. The TGI was found to be 11 µM in experiment [7]; 13.7 µM in experiment [8]; 5.32 µM in [9]; 13.1 µM in experiment [10]; 42.8 µM in experiment [12]; 10.6 µM in [13]. In [14], this compound displayed a TGI of 3.24 µM.
In the case of `NC(=S)N1N=C2c3ccccc3CC[C@H]2[C@@H]1c1ccc(Cl)cc1`, the TGI was above 100 µM in experiment [1]; 70.6 µM in experiment [2]; 73.3 µM in experiment [3]; above 100 µM in experiment [4]; above 100 µM in experiment [5]; 61.6 µM in [6]. Besides, the TGI in experiment [7] is above 100 µM; in [8] it was above 100 µM; in experiment [15], above 100 µM; in [9] it was above 100 µM; in experiment [10], 51.5 µM; in experiment [11], 84.3 µM. Besides, the TGI in [12] is above 100 µM; in experiment [13], above 100 µM; in [14] it was 60.6 µM.
In the case of `C=C=CC(NC(=O)c1ccccc1)(C(=O)O)C(F)(F)F` (configuration not stated), the TGI in [1], in experiment [2], in [3], in experiment [4], in [5] and in experiment [6] was above 100 µM throughout. Moreover, the TGI in [7], in experiment [15], in experiment [10], in experiment [11], in experiment [12] and in [13] was above 100 µM throughout. Further, the TGI in [14] was above 100 µM.
In the case of `C[C@H](CCC1SC1(C)C)C1CCC2(C)C3=C(CC[C@]12C)[C@@]1(C)CC[C@H](O)C(C)(C)C1CC3` (some centres not stated), the TGI in [1], in [2], in experiment [3], in [4], in [5] and in [6] was above 100 µM throughout. Besides, the TGI in experiment [7], in experiment [8], in experiment [15], in experiment [10], in [11] and in experiment [14] was above 100 µM in each case.
Consider `C/C(N=NS(=O)(=O)c1ccc([N+](=O)[O-])cc1)=C1\C=CC=CN1O`, for which the TGI in experiment [1], in [2], in experiment [3], in experiment [4], in experiment [5] and in experiment [6] was above 100 µM in each case. For the same compound, the TGI in experiment [7], in experiment [8], in experiment [15], in experiment [9], in experiment [12] and in experiment [13] was above 100 µM throughout. In addition, in experiment [14], the TGI was above 100 µM.
